Like-named read-outs stand apart in the source and are kept apart here.
Columns and labels:
[1] = 2-week rat toxicology and toxicokinetic study; type: in vivo; settings: for Cmax / Tmax / AUC(0-t): po; for AUC(0-t): read-out: AUC0-24
[2] = Rabbit pilot developmental toxicity study; type: in vivo; settings: 30 mg/kg/day, GD 14
Protocol: On GD 29, a laparohysterectomy was performed on each surviving female.

[3] = Single-dose intravenous rat toxicology study; settings: Crl:CD(SD)IGS BR, in vivo
Protocol: Clinical observations, body weights, and food consumption were noted periodically. All animals were euthanized following a minimum 13-day non-dosing (recovery) period. Clinical pathology evaluations (hematology and serum chemistry) were performed on all rats at the time of necropsy and selected organs were weighed. No microscopic examinations were performed.

[4] = Phase 2 efficacy study in patients with Major Depressive Disorder; type: in vivo, human
Description: Subjects were identified who were between the ages of 18-65 (inclusive), and met criteria for Major Depressive Disorder in accordance with the Diagnostic and Statistical manual of Mental Disorders-IV-TR and confirmed by the MINI International Neuropsychiatric Interview.
Subjects were required to refrain from taking antidepressants, anticonvulsants including gabapentin and pregabalin, neuroleptics, MAO inhibitors, barbiturates, benzodiazepines, stimulants, antipsychotics, lithium, anxiolytics and beta blockers starting two weeks prior to the study and continuing until after the follow-up visit.
Samples were drawn to assess total bilirubin, alkaline phosphatase, ALT (SGPT), AST (SGOT), blood urea nitrogen (BUN), creatinine, glucose, uric acid, calcium, phosphorus, total protein, albumin, total cholesterol, LDL, HDL, triglycerides, sodium, potassium, bicarbonate, chloride, GGT and creatine kinase, Hepatitis B, C and HIV serologies, TSH, drug screen and serum pregnancy test for females.
Efficacy was determined by measuring the change from baseline in the Montgomery-Asberg Depression Rating Scale (MADRS), the HAMD-17, the Clinical Global Impression Global Improvement Scale (CGI-I), the Clinical Global Impression-Severity scale (CGI-S) and the Derogatis Interview for Sexual Functioning Self-Report (DISF-SR). […] Comparisons between treatment groups based on MADRS (the primary efficacy parameter), HAMD-17, Anhedonia, DISF-SR, CGI-I and CGI-S scores were analyzed using a mixed-repeated measures (MMRM) analysis model including factors for Subject, Visit, Treatment Arm and Baseline value as a covariate. Adjusted least-squares means from these models are presented. Comparisons between groups were made at each post-baseline visit using model-based contrasts and adjusted degrees of freedom. For these analyses no explicit data imputations were made prior to the analysis. Response and remission categorical data were analyzed using chi-square tests. Inferential analyses of safety data were conducted with ANOVA models or chi-square tests. Two-tail alpha was set to 0.05. All analyses were conducted using SAS version 9.2.

[5] = female, Crl:CD (SD)IGS BR, rat, in vivo, 10 mg/kg/day, females, 10 mg/kg/day, Day 0
[6] = female, Crl:CD (SD)IGS BR, rat, in vivo, 10 mg/kg/day, females, 10 mg/kg/day, Day 13
[7] = female, Crl:CD (SD)IGS BR, rat, in vivo, 20 mg/kg/day, females, 20 mg/kg/day, Day 0
[8] = female, Crl:CD (SD)IGS BR, rat, in vivo, 20 mg/kg/day, females, 20 mg/kg/day, Day 13
[9] = female, Crl:CD (SD)IGS BR, rat, in vivo, 40 mg/kg/day, females, 40 mg/kg/day, Day 0
[10] = female, Crl:CD (SD)IGS BR, rat, in vivo, 40 mg/kg/day, females, 40 mg/kg/day, Day 13
[11] = male, Crl:CD (SD)IGS BR, rat, in vivo, 10 mg/kg/day, males, 10 mg/kg/day, Day 13
[12] = male, Crl:CD (SD)IGS BR, rat, in vivo, 20 mg/kg/day, males, 20 mg/kg/day, Day 0
[13] = male, Crl:CD (SD)IGS BR, rat, in vivo, 20 mg/kg/day, males, 20 mg/kg/day, Day 13
[14] = male, Crl:CD (SD)IGS BR, rat, in vivo, 40 mg/kg/day, males, 40 mg/kg/day, Day 0
[15] = male, Crl:CD (SD)IGS BR, rat, in vivo, 40 mg/kg/day, males, 40 mg/kg/day, Day 13
[16] = male, Crl:CD(SD)IGS BR, rat, in vivo, 10 mg/kg/day, males, 10 mg/kg/day, Day 0
[17] = 100 mg, Visit 8, LOCF, Completers, 50% reduction or more of baseline total score
[18] = Visit 8 (Week 6), MMRM, MITT, n = 30

Clc1ccc([C@]23CNC[C@H]2C3)cc1Cl [amitifadine, (+)-1-(3,4-dichlorophenyl)-3-azabicyclo[3.1.0]hexane]
NOAEL at 14 days ([1]; both sexes, Crl:CD(SD)IGS BR, rat, in vivo, oral gavage, 14 days, read-out: NOAEL for systemic toxicity): 40 mg/kg/day | Cmax [1, 5]: 1830 ng/mL | Tmax [1, 5]: 2 h | AUC(0-t) [1, 5]: 11600 ng·h/mL | Cmax [1, 6]: 1150 ng/mL | Tmax [1, 6]: 2 h | AUC(0-t) [1, 6]: 8190 ng·h/mL | Cmax [1, 7]: 2800 ng/mL | Tmax [1, 7]: 1 h | AUC(0-t) [1, 7]: 28600 ng·h/mL | Cmax [1, 8]: 2300 ng/mL | Tmax [1, 8]: 1 h | AUC(0-t) [1, 8]: 22000 ng·h/mL | Cmax [1, 9]: 4440 ng/mL | Tmax [1, 9]: 4 h | AUC(0-t) [1, 9]: 50600 ng·h/mL | Cmax [1, 10]: 3100 ng/mL | Tmax [1, 10]: 2 h | AUC(0-t) [1, 10]: 32900 ng·h/mL | increase in mean absolute liver weight ([1]; females, 40 mg/kg/day): 18% | Cmax [1, 11]: 878 ng/mL | Tmax [1, 11]: 2 h | AUC(0-t) [1, 11]: 6310 ng·h/mL | Cmax [1, 12]: 3000 ng/mL | Tmax [1, 12]: 1 h | AUC(0-t) [1, 12]: 17400 ng·h/mL | Tmax [1, 13]: 2 h | AUC(0-t) [1, 13]: 13000 ng·h/mL | Cmax [1, 14]: 3040 ng/mL | Tmax [1, 14]: 1 h | AUC(0-t) [1, 14]: 34800 ng·h/mL | Cmax [1, 15]: 2730 ng/mL | Tmax [1, 15]: 1 h | AUC(0-t) [1, 15]: 25600 ng·h/mL | Tmax [1, 16]: 1 h | AUC(0-t) [1, 16]: 7880 ng·h/mL | increase in mean absolute liver weight ([1]; males, 40 mg/kg/day): 20% | maternal outcome [2]: all females in the 30 mg/kg/day group were euthanized on GD 14 | NOAEL at 13 days ([3]; female rats): 5 mg/kg | NOAEL at 13 days ([3]; male rats): 1.5 mg/kg | DISF-SR scores vs placebo ([4]; 100 mg, low and high baseline groups): no differences between (+)-1-(3,4-dichlorophenyl)-3-azabicyclo[3.1.0]hexane 100 mg and placebo | Response rate, HAMD-17 (%) [4, 17]: 55.00% | Response rate, MADRS (%) [4, 17]: 40.00% | Remission rate, HAMD-17 (%) ([4]; 100 mg, Visit 8, LOCF, Completers, HAMD-17 ≦ 7): 20.00% | Remission rate, MADRS (%) ([4]; 100 mg, Visit 8, LOCF, Completers, MADRS ≦ 12): 30.00% | Anhedonia factor (LS Mean - SE) [4, 18]: 7.92 (0.50) | CGI-I (LS Mean - SE) [4, 18]: 2.13 (0.20) | CGI-S (LS Mean - SE) [4, 18]: 3.31 (0.15) | HAMD-17 (LS Mean - SE) [4, 18]: 14.90 (1.40) | MADRS (LS Mean - SE) [4, 18]: 18.16 (1.21) | MADRS, Difference (95% CI) placebo vs drug ([4]; Visit 8, MMRM, MITT, P = 0.028): 3.83 (0.41, 7.26) | CGI-I, Difference (95% CI) placebo vs drug ([4]; Visit 8, MMRM, MITT, P = 0.030): 0.62 (0.06, 1.18) | Anhedonia factor, Difference (95% CI) placebo vs drug ([4]; Visit 8, MMRM, MITT, P = 0.049): 1.41 (0.01, 2.82) | HAMD-17, Difference (95% CI) placebo vs drug ([4]; Visit 8, MMRM, MITT, P = 0.125): 3.12 (−0.87, 7.12) | CGI-S, Difference (95% CI) placebo vs drug ([4]; Visit 8, MMRM, MITT, P = 0.306): 0.22 (−0.21, 0.66) | Diastolic BP - Standing, Mean Change from baseline ([4]; Visit 8, Safety Population, n = 33, P value vs. placebo 0.017): −3.00 mm Hg | Supine Pulse, Mean Change from baseline ([4]; Visit 8, Safety Population, n = 33, P value vs. placebo 0.145): 1.55 beats per minute | LDL Cholesterol Fasting, Mean Change from baseline ([4]; Visit 8, Safety Population, n = 33, P value vs. placebo 0.374): -4.29 mg/dL | Total Cholesterol Fasting, Mean Change from baseline ([4]; Visit 8, Safety Population, n = 33, P value vs. placebo 0.412): -5.86 mg/dL | Systolic BP - Standing, Mean Change from baseline ([4]; Visit 8, Safety Population, n = 33, P value vs. placebo 0.509): 0.069 mm Hg | Triglycerides Fasting, Mean Change from baseline ([4]; Visit 8, Safety Population, n = 33, P value vs. placebo […]): -12.00 mg/dL | Systolic BP - Supine, Mean Change from baseline ([4]; Visit 8, Safety Population, n = 33, P value vs. placebo 0.904): 2.58 mm Hg | Diastolic BP - Supine, Mean Change from baseline ([4]; Visit 8, Safety Population, n = 33, P value vs. placebo 0.961): −0.38 mm Hg | Weight, Mean Change from baseline ([4]; Visit 8, Safety Population, n = 33, P value vs. placebo 0.965): 0.078 kg | overall statistical effect size (Cohen's d), MADRS ([4]; Week 6): −0.63 | MADRS total score, estimated LS mean change from baseline (MMRM) ([4]; Week 6, placebo […], p=0.028): 18.16 | patients who reported an adverse treatment event ([4]; human, in vivo): 30.30% | Treatment-Emergent Adverse Event: Abdominal Pain (NOS), % of Patients ([4]; n = 33): 6.06% | Treatment-Emergent Adverse Event: Abdominal Pain (NOS), number of patients ([4]; n = 33): 2 | Treatment-Emergent Adverse Event: Anxiety, % of Patients ([4]; n = 33): 6.06% | Treatment-Emergent Adverse Event: Anxiety, number of patients ([4]; n = 33): 2 | Treatment-Emergent Adverse Event: Diarrhea NOS, % of Patients ([4]; n = 33): 6.06% | Treatment-Emergent Adverse Event: Diarrhea NOS, number of patients ([4]; n = 33): 2 | Treatment-Emergent Adverse Event: Emotional Disturbance NOS, % of Patients ([4]; n = 33): 6.06% | Treatment-Emergent Adverse Event: Emotional Disturbance NOS, number of patients ([4]; n = 33): 2 | Treatment-Emergent Adverse Event: Headache NOS, % of Patients ([4]; n = 33): 9.09% | Treatment-Emergent Adverse Event: Headache NOS, number of patients ([4]; n = 33): 3 | Treatment-Emergent Adverse Event: Irritability, % of Patients ([4]; n = 33): 6.06% | Treatment-Emergent Adverse Event: Irritability, number of patients ([4]; n = 33): 2 | Treatment-Emergent Adverse Event: Nausea, % of Patients ([4]; n = 33): 6.06% | Treatment-Emergent Adverse Event: Nausea, number of patients ([4]; n = 33): 2 | Treatment-Emergent Adverse Event: Rash NOS, % of Patients ([4]; n = 33): 6.06% | Treatment-Emergent Adverse Event: Rash NOS, number of patients ([4]; n = 33): 2 | Treatment-Emergent Adverse Event: Upper Respiratory Tract Infection NOS, % of Patients ([4]; n = 33): 6.06% | Treatment-Emergent Adverse Event: Upper Respiratory Tract Infection NOS, number of patients ([4]; n = 33): 2
